The series in a line: TIMS collisional cross section (CCS, N2) of the lipid ion; higher = larger ion cross section. The settings on record: ionization mode: positive, one isomer drawn.

Each structure is given as a SMILES string. ± gives the standard deviation of the averaged measurements.

Regarding `CCCCC/C=C\C/C=C\CCCCCCCC(=O)OC[C@@H](COC(=O)CCCCCCC/C=C\CCCCCC)OC(=O)CCCCCCC/C=C\CCCCCC` [TG 16:1_16:1_18:2] (ion (formula + adduct): [C53H94O6+NH4] 1+), the “TIMS collisional cross section” value reads like this: (sample type: HeLa) 311.9 Å²; (sample type: Liver) 310.5 Å²; (sample type: plasma) 311.2 Å². In the case of `CCCCCCC/C=C\CCCCCCCCC(=O)OC[C@H](COP(=O)([O-])OCC[N+](C)(C)C)OC(=O)CCCCCCCC/C=C\CCCCCCC` [PC 18:1_18:1] (ion (formula + adduct): [C44H84NO8P+H] 1+), where the note is “sample type: HeLa”, the “TIMS collisional cross section” value is 292.9 Å². `CCCCC/C=C\C/C=C\CCCCCCCC(=O)OC[C@H](COC(=O)CCCCCCCCC/C=C\CCCCCCCC)OC(=O)CCCCCCC/C=C\CCCCCCCCC` [TG 18:2_19:1_20:1] (ion (formula + adduct): [C60H108O6+NH4] 1+): under “sample type: Liver”, the “TIMS collisional cross section” value was found to be 332.8 Å². Take `CCCCCC/C=C\CCCCCCCC(=O)O[C@@H](CO)COC(=O)CCCCCCCCCCCCCCC` [DG 16:0_16:1_0:0] (ion (formula + adduct): [C35H66O5+NH4] 1+): the “TIMS collisional cross section” value runs as follows: (sample type: HeLa) 254.9 Å²; (sample type: Liver) 254.9 Å²; (sample type: plasma) 257 Å². On to `CCCCCCCC/C=C\CCCCCCCCCCCC(=O)OC[C@@H](COC(=O)CCCCCCCCCCCCCCC)OC(=O)CCCCCCC/C=C\CCCCCCCC` [TG 16:0_18:1_22:1] (ion (formula + adduct): [C59H110O6+NH4] 1+), for which the “TIMS collisional cross section” value (sample type: Liver) is recorded as 334.2 Å². Regarding `CCCCC/C=C\C/C=C\CCCCCCCC(=O)O[C@H](COC(=O)CCCCCCC/C=C\CCCCCCCC)COC(=O)CCCCCCCCCCCCCCCCCCCCC` [TG 18:1_18:2_22:0] (ion (formula + adduct): [C61H112O6+NH4] 1+), the “TIMS collisional cross section” value is 338.2 Å² (sample type: Liver) and 337.6 Å² (sample type: plasma). Consider `CCCCC/C=C\C/C=C\C/C=C\C/C=C\CCCCCC(=O)O[C@H](COC(=O)CCCCCCCCCCCCCCC)COP(=O)([O-])OCC[N+](C)(C)C` [PC 16:0@_22:4] (ion (formula + adduct): [C46H84NO8P+H] 1+), for which, for the setting “sample type: HeLa”, the “TIMS collisional cross section” value is given as 294.9 Å². As to `CCCCC/C=C\C/C=C\CCCCCCCC(=O)OC[C@H](COC(=O)CCCCCCC/C=C\CCCCCCCCC)OC(=O)CCCCCCC/C=C\C/C=C\CCCCC` [TG 18:2_18:2_19:1] (ion (formula + adduct): [C58H102O6+NH4] 1+), the “TIMS collisional cross section” value (sample type: Liver) worked out at 325.1 Å².

For the compound `CCCCCCCC/C=C\CCCCCCCC(=O)O[C@H](COC(=O)/C=C\CCCCCCCCCCCCC)COP(=O)([O-])OCC[N+](C)(C)C` [PC 16:1_18:1] (ion (formula + adduct): [C42H80NO8P+H] 1+), for the setting “sample type: HeLa”, the “TIMS collisional cross section” value is 286.6 Å². In the case of `CC/C=C\C/C=C\C/C=C\C/C=C\C/C=C\CCCC(=O)OC[C@@H](COC(=O)CCCCCCCCCCCCC)OC(=O)CCCCCCC/C=C\C/C=C\CCCCC` [TG 14:0_18:2_20:5] (ion (formula + adduct): [C55H92O6+NH4] 1+), the “TIMS collisional cross section” value (sample type: Liver) amounted to 312.4 Å².

Take `CCCCC/C=C\C/C=C\C/C=C\C/C=C\CCCC(=O)O[C@H](CO)COP(=O)(O)OCCN` [LPE 20:4] (ion (formula + adduct): [C25H44NO7P+H] 1+): the “TIMS collisional cross section” value (sample type: plasma) is on record as 214.45 ± 0.92 Å².

Regarding `CCCCC/C=C\C/C=C\C/C=C\C/C=C\CCCC(=O)OC[C@@H](COC(=O)CCCCCCC/C=C\CCCCCC)OC(=O)CCC/C=C\C/C=C\C/C=C\C/C=C\CCCCC` [TG 16:1_20:4_20:4] (ion (formula + adduct): [C59H96O6+NH4] 1+), the “TIMS collisional cross section” value (sample type: HeLa) is reported as 323 Å². Regarding `CCCCC/C=C\C/C=C\CCCCCCCCCCCC(=O)O[C@H](COC(=O)CCCCCCC/C=C\CCCCCCCC)COP(=O)(O)OCCN` [PE 18:1_22:2@] (ion (formula + adduct): [C45H84NO8P+H] 1+), the “TIMS collisional cross section” value (sample type: Liver) stood at 291.5 Å².

Values taken from the supplement of paper PMC6965134.
